The subject of data set [1] is human umbilical vein endothelial cells (HUVEC). The data set can be described thus: Cell death of human umbilical vein endothelial cells. It is filed as cell-based. The settings on record: in 1 hour, with IG-1.
The test system of data set [2] is human neuroblastoma (SH-SY5Y). The data set can be described thus: Cell proliferation / cell death assay, SH-SY5Y. It is filed as cell-based. The conditions noted are these: in 24 hours after treatment. The protocol: (§1) Human pancreatic cancer cell lines (Panc-1, MiaPaca2, BXPC3, Aspc 1), human hepatoma cell line (HuH7), human gastric cancer cell lines (AGS, MKN45), human colon cancer cell line (CoCM-1), human mammary cancer cell line (MCF-7), human neuroblastoma (SH-SY5Y), human prostate cancer cells (PC3), and murine Ehrlich ascites cancer cells and mouse 3T3-L1 fibroblasts were obtained from American Type Culture Collection (Rockville, Md., USA). The cancer cells were cultured in RPMI 1640 containing 10% fetal calf serum. Cultures were maintained at 37° C. in a humidified atmosphere of 5% CO2.
(§2) Cell proliferation assays were performed with the CellTiter 96 AQueous One Solution Cell Proliferation Assay kit according to the manufacturer's instructions (Promega, Madison, Wis., USA). Briefly, 5×10^3 cells/well in medium were placed onto 96-well plates. IGs were added to cellular cultures at final concentrations of 0, 1, 10, and 100 μM. […] of CellTiter 96 AQueous One Solution Reagent, which contains a tetrazolium compound, 3-(4,5-dimethylthiazol-2-yl)-5-(3-carboxymethoxyphenyl)-2-(4-sulfophenyl)-2H-tetrazolium, an inner salt; MTS was added to the culture medium. After incubating the plate for 1 h in a CO2 incubator, absorbance at 490 nm was recorded with a 96-well plate reader.

Data set [3] has as its system human prostate cancer cells (PC3). The data set can be described thus: Cell proliferation / cell death assay, PC3. It is filed as cell-based. The conditions noted are these: PC3, in 24 hours after treatment. The method, then:
as §1, §2

The test system of data set [4] is human normal cultured cells. The data set can be described thus: Proliferation of human normal cultured cells. It is filed as cell-based. The settings on record: 1-100 μM, data not shown. The method, then:
Human primary culture cells, dermal fibroblasts, epidermal keratinocytes and umbilical vein endothelial cells were purchased from Cell Applications (San Diego, Calif., USA) and cultured according to the manufacturer's instructions.
Cell proliferation assays were performed with the CellTiter 96 AQueous One Solution Cell Proliferation Assay kit according to the manufacturer's instructions (Promega, Madison, Wis., USA). Briefly, 5×10^3 cells/well in medium were placed onto 96-well plates. IGs were added to cellular cultures at final concentrations of 0, 1, 10, and 100 μM. Cultures were incubated for 3 days or 7 days and then added to 20 μL/well of CellTiter 96 AQueous One Solution Reagent, which contains a tetrazolium compound, 3-(4,5-dimethylthiazol-2-yl)-5-(3-carboxymethoxyphenyl)-2-(4-sulfophenyl)-2H-tetrazolium, an inner salt; MTS was added to the culture medium. After incubating the plate for 1 h in a CO2 incubator, absorbance at 490 nm was recorded with a 96-well plate reader.

A further data set has as its system human hepatoma (HuH7). The data set can be described thus: Cell proliferation / cell death assay, HuH7. It counts as cell-based. The conditions noted are these: HuH7, in 24 hours after treatment. The method, then: as §1, §2
The subject of the next data set is native rat adipocytes. The data set can be described thus: Lipogenesis in native rat adipocytes. It counts as cell-based. The protocol: Adipocytes were isolated from epididymal fat pads dissected from freshly sacrificed male Long-Evans rats and incorporation of [6-^3H]-glucose into triglycerides in response to treatment with inositol glycans or insulin was measured as previously described (Chakraborty, N. and M. d'Alarcao, Bioorganic & Medicinal Chemistry 13 (2005) 6732-6741).

The next data set relates to Panc-1 cells. The data set can be described thus: Cell proliferation / cell death assay, Panc-1. The conditions noted are these: Panc-1, after 3 days (72 hours). It counts as cell-based, human. The protocol: as §1, §2
Data set [5] deals with 3T3-L1 adipocytes. The data set can be described thus: Lipogenesis in 3T3-L1 adipocytes. It is filed as cell-based, mouse. The settings on record: 100 μM. The method, then:
(§3) 3T3-L1 fibroblasts were maintained in Dulbecco's modified Eagle's medium (DMEM) with 25 mM glucose plus 10% fetal bovine serum (FBS). Following 2 days at confluence, differentiation was initiated by the addition of DMEM containing 10% FBS, 167 nM insulin, […] dexamethasone, and 0.5 mM isobutylmethylxanthine. Three days later, the medium was replaced with DMEM plus 10% FBS and 167 nM insulin. After 2 more days, the medium was switched to DMEM plus 10% fetal bovine serum. Adipocytes were used 6-14 days after completion of the differentiation protocol, when >90% of the cells expressed the adipocyte phenotype. Prior to experiments, cells were washed two times with DMEM medium containing 5 mM glucose, 0.2% bovine serum albumin, 25 mM Hepes (pH 7.4), 100 units/ml penicillin, 100 units/ml streptomycin and 0.29 mg/ml glutamine, and were incubated in the same medium for 2 h. Glycogen and lipid synthesis were measured in 24-well dishes. […] The lipids were then extracted overnight with 5 ml of Betafluor (National Diagnostics), and glucose incorporation into lipid was measured by scintillation counting. 400 μl of the cell suspension was added to 600 μl of 50% KOH, and glycogen was precipitated and radioactivity was counted by a liquid scintillation counter

For data set [6], the system named is 3T3-L1 adipocytes. The data set can be described thus: Glycogen synthesis in 3T3-L1 adipocytes. It is filed as cell-based, mouse. The settings on record: 100 μM. The protocol: as §3

Structures are written as SMILES.

Take `CCCCC/C=C\C/C=C\C/C=C\C/C=C\CCCC(=O)O[C@H](COCCCCCCCCCCCCCCCCCC)COP(=O)(O)O` [AAPA2, 1-0-alkyl (18:0)-2-0-acyl-(20:4)-sn-glycerol-phosphate]: the “effect on rapid cell death of HUVEC induced by IG-1” value in [1] is reported as “inhibits this rapid cell death”.

On to `CCCCCCCCCCCCCCCC(=O)O[C@@H]1C(O)C(O)[C@H](O)[C@H](O[C@H]2OC(CO)[C@@H](O)[C@H](O)C2N)C1OP(=O)(O)O` (stereo partly drawn) [IG2, 2-Amino-2-deoxy-α-D-glucopyranosyl-(1→6)-2-palmitoyl-D-myo-inositol-1-phosphate], for which the cancer cell death result (in data set [2]; in [3]; in the data set on human hepatoma (HuH7)) was “induced cancer cell death” throughout. For the same molecule, in [4], the “proliferation of human normal cultured cells” value (“proliferation” below) was “no effect on the proliferation”. For the same molecule, the EC50 (usually the concentration giving half of the maximal effect) with native rat adipocytes (Adipocyte, rat isolated adipocytes, fit to receptor binding model, read-out: EC50 value for stimulation of lipogenesis) came out at 2500 nM. Also, the Emax in the data set on native rat adipocytes (Adipocyte, rat isolated adipocytes, stimulation of lipogenesis, read-out: Amax (maximal effect)) was determined as 37%. Besides, in the data set on native rat adipocytes (rat isolated adipocytes, concentration series), the stimulation of lipogenesis result is listed as “stimulated lipogenesis”.

As to `CCCCCCCCCCCCCCCC(=O)OC1[C@H](O)C(O)C(O)[C@H](O)[C@@H]1O[C@H]1OC(CO)[C@@H](O)[C@H](O)C1N` (stereo partly drawn) [IG13, 2-Amino-2-deoxy-α-D-glucopyranosyl-(1→6)-1-palmitoyl-D-myo-inositol], the cell death entry in the data set with Panc-1 cells is “induced cancer cell death”. In addition, in data set [4], the “proliferation” value is given as “did not affect the proliferation”. For the same molecule, the stimulation of lipogenesis result in the data set with native rat adipocytes (native rat adipocytes, 40 μM) is on record as “little or no lipogenesis”.

For `CCCCCCCCCCCCCCCC(=O)O[C@H]1[C@@H](O)[C@H](O)[C@@H](O)[C@H](O)[C@H]1O[C@H]1O[C@H](CO)[C@@H](O)[C@H](O)[C@H]1N` [IG14, 2-Amino-2-deoxy-α-D-glucopyranosyl-(1→3)-2-palmitoyl-D-myo-inositol], the cell death entry in the data set with Panc-1 cells is given as “induced cancer cell death”. Also, the “proliferation” value in data set [4] was “did not affect the proliferation”. Further, in the data set with native rat adipocytes (native rat adipocytes, 40 μM), the stimulation of lipogenesis entry is given as “little or no lipogenesis”.

For `CCCCCCCCCCCCCCCC(=O)O[C@@H]1C(O)C(O[C@H]2OC(CO)[C@@H](O)[C@H](O)C2N)[C@@H](O)[C@@H](O)C1O` (stereo partly drawn) [IG15, 2-Amino-2-deoxy-α-D-glucopyranosyl-(1→3)-1-palmitoyl-D-myo-inositol], in the data set on Panc-1 cells, the cell death result is “induced cancer cell death”. The lipogenesis entry in the data set with 3T3-L1 adipocytes [5] is listed as “stimulates”. For the same molecule, the “proliferation” value in data set [4] is reported as “did not affect the proliferation”. Further, the stimulation of lipogenesis entry in the data set with native rat adipocytes (native rat adipocytes, 40 μM) is recorded as “little or no lipogenesis”. Also, the glycogen synthesis entry in the data set with 3T3-L1 adipocytes [6] is reported as “stimulates”.
